The target in test [1] is T1, SpNanC (Streptococcus pneumoniae, UniProt A0A0H2UQE4). Conditions: read-out: IC50, SpNanC; substrate Neu5Acα2–3GalβpNP; ref [25]; cited from earlier work.
Test [2] concerns the target T2, PmST1 (Pasteurella multocida, UniProt Q15KI8). Conditions: read-out: IC50, PmST1; substrate Neu5Acα2–3GalβpNP; ref [25]; cited from earlier work.
For test [3], the target named is T3, A. ureafaciens sialidase (Paenarthrobacter ureafaciens, UniProt Q5W7Q2). Conditions: read-out: IC50, A. ureafaciens; substrate Neu5Acα2–3GalβpNP; ref [47]; cited from earlier work.
Test [4] has as its target T3, A. ureafaciens sialidase. As to the kind of experiment: Sialidase inhibition assay. The class given is biochemical, Arthrobacter ureafaciens. The conditions noted are these: read-out: Percentage inhibition, A. ureafaciens.
The target of test [5] is T4, SpNanA (Streptococcus pneumoniae, UniProt P62575). Description: biochemical.
T4 sequence (P62575 54-1035): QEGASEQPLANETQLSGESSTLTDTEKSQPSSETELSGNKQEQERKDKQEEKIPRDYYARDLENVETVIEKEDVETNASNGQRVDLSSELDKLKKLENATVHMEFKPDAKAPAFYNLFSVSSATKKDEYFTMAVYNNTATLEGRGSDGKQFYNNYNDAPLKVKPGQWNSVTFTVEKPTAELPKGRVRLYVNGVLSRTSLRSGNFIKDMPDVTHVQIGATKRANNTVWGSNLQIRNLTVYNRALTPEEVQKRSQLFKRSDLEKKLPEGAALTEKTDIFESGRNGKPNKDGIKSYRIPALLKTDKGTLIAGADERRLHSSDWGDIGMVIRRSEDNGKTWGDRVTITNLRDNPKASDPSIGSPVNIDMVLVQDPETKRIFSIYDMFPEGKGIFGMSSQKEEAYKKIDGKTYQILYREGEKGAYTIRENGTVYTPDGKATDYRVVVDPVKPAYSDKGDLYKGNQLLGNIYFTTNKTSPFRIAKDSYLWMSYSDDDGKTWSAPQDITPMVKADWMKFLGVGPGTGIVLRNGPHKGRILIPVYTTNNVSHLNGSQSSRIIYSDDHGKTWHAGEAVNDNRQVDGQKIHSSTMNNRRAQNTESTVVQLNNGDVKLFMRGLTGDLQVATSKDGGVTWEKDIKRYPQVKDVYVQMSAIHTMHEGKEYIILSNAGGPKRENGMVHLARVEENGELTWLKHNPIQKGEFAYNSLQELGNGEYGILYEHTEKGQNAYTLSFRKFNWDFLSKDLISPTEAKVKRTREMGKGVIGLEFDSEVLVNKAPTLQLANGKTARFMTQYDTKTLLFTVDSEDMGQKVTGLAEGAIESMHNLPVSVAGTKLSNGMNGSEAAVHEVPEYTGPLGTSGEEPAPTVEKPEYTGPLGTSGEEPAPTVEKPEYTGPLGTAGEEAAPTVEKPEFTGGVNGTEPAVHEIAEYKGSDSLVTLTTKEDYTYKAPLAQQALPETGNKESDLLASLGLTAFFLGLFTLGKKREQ
The target in test [6] is T5, hNEU2 (Homo sapiens, UniProt Q9Y3R4). Description: Sialidase inhibition assay. Format: biochemical. The conditions noted are these: read-out: Percentage inhibition, hNEU2.
T5 sequence (Q9Y3R4 whole entry): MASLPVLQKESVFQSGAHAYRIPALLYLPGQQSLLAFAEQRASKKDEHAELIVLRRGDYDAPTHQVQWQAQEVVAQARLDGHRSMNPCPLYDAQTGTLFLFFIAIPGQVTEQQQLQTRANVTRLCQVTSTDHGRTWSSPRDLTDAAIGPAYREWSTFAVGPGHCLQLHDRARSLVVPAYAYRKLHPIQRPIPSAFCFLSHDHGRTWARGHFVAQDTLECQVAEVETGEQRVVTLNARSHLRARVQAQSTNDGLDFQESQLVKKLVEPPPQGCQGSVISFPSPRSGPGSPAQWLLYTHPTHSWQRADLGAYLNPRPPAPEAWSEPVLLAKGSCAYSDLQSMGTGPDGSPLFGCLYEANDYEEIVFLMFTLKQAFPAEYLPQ
The target in test [7] is C. perfringens sialidase (CpNanI) (Clostridium perfringens, UniProt A0A0H2YQR1). Description: biochemical.
C. perfringens sialidase (CpNanI), sequence (A0A0H2YQR1 27-694 limits assumed): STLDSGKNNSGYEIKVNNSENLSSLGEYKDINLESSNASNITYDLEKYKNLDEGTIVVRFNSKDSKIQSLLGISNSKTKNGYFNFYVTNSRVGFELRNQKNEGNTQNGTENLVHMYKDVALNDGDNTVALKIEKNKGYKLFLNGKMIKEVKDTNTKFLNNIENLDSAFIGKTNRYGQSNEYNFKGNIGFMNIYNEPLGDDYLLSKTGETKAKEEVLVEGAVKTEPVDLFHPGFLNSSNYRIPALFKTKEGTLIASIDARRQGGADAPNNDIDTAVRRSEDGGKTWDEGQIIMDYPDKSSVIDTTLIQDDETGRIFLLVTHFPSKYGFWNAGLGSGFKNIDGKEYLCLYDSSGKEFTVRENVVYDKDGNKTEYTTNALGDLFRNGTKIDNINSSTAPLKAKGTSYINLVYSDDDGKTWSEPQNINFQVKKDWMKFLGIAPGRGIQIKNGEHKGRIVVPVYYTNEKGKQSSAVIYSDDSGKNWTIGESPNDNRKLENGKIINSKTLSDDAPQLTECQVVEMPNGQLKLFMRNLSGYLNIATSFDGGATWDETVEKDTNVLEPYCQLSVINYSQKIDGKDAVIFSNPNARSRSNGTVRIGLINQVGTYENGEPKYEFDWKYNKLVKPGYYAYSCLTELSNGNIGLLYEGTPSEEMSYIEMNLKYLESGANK
Test [8] concerns the target T2, PmST1. As to the kind of experiment: biochemical. Conditions: for inhibition at 100 µM / inhibition at 1000 µM: read-out: Percentage inhibition, PmST1.
Test [9] concerns the target T1, SpNanC. As to the kind of experiment: biochemical. Conditions: for inhibition at 100 µM / inhibition at 1000 µM: read-out: Percentage inhibition, SpNanC.
For the next test, the target named is SpNanB (Streptococcus pneumoniae serotype 4, UniProt Q54727). Description: biochemical. The conditions noted are these: for inhibition at 100 µM / inhibition at 1000 µM: read-out: Percentage inhibition, SpNanB.
SpNanB, sequence (Q54727 30-697): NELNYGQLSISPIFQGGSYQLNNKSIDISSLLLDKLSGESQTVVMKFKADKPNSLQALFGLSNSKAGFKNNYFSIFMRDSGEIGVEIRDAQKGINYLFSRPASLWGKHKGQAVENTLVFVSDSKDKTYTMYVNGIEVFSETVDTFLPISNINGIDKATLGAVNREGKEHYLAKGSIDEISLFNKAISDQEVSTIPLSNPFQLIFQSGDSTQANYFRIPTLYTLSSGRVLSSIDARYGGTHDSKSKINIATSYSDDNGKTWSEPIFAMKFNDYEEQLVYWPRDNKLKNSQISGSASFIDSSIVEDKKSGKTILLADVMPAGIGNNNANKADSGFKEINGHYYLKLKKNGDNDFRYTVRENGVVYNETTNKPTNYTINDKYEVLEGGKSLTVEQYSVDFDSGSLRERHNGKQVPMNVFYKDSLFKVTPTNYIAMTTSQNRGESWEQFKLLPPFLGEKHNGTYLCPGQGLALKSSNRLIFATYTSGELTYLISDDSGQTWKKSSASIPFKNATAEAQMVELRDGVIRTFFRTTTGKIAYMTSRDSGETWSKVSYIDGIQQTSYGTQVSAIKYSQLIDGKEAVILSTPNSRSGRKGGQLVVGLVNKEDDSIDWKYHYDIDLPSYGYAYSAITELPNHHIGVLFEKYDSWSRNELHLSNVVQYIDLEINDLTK
Test [10] has as its target T6, BiNanH2 (Bifidobacterium longum subsp. infantis, UniProt A0ACD7UU12). Description: biochemical. The class given is biochemical, Bifidobacterium longum subsp. infantis ATCC15697.
Test [11] has as its target T7, V. cholerae sialidase (Vibrio cholerae serotype O1, UniProt P0C6E9). Description: biochemical. Format: biochemical.
For test [12], the target named is T4, SpNanA. The class given is biochemical. The conditions noted are these: inhibitor:sialidase 2:1 molar ratio, 23 °C.
For test [13], the target named is T6, BiNanH2. Format: biochemical, Bifidobacterium longum subsp. infantis ATCC15697. The conditions noted are these: inhibitor:sialidase 2:1 molar ratio, 23 °C.
Test [14] relates to C. perfringens sialidase CpNanI. Format: biochemical, Clostridium perfringens. The conditions noted are these: inhibitor:sialidase 2:1 molar ratio, 23 °C; for sensitivity of CpNanI to the covalent inhibitor in the time course study: Figures 2A, S2A.
Test [15] has as its target T5, hNEU2. The class given is biochemical. The conditions noted are these: inhibitor:sialidase 2:1 molar ratio; 23 °C; Figures 2E, S2E.
Test [16] concerns the target T7, V. cholerae sialidase. Format: biochemical. The conditions noted are these: inhibitor:sialidase 2:1 molar ratio; 23 °C.
Where [17] appears, read: read-out: Percentage inhibition, SpNanA.
The mark [18] stands for this setting: read-out: Percentage inhibition, C. perfringens.
Where [19] appears, read: read-out: Percentage inhibition, BiNanH2.
The mark [20] stands for this setting: read-out: Percentage inhibition, V. cholerae.

SMILES strings stand for the structures. Like-named read-outs stand apart in the source and are kept apart here.

T7 sequence (P0C6E9 25-781): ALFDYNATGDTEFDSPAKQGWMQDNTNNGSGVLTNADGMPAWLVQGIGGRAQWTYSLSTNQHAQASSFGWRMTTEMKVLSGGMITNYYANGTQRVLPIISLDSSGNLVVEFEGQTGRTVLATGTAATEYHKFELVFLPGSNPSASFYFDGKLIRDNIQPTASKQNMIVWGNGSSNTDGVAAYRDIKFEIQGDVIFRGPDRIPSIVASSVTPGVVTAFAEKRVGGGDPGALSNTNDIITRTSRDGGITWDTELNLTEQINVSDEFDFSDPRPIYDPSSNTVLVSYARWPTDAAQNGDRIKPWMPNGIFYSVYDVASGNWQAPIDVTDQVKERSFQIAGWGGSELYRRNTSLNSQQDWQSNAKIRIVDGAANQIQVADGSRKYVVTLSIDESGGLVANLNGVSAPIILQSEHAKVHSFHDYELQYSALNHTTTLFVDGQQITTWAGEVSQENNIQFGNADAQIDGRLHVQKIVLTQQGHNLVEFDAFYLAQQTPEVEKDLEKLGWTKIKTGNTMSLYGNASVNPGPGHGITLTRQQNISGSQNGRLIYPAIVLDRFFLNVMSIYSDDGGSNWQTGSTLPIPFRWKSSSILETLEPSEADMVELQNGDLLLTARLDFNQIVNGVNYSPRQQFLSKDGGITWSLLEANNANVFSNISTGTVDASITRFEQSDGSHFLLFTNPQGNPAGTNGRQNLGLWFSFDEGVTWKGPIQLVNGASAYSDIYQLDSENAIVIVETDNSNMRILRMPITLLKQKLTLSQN

For `CC(=O)N[C@H]1[C@H]([C@H](O)[C@H](O)CO)OC(C(=O)O)=C[C@@H]1O` [Neu5Ac2en, 2-deoxy-2,3-didehydro-N-acetylneuraminic acid], the IC50 (in general, the concentration at which inhibition is half-maximal) on SpNanC [1] was over 1000 µM; on PmST1 [2] it was over 1000 µM; on A. ureafaciens sialidase [3], 8.1 ± 0.3 µM.
As for `[N-]=[N+]=N[C@@H]1[C@@H](O)[C@H](F)[C@](F)(C(=O)O)O[C@H]1[C@H](O)[C@H](O)CO` [Compound 3, 5-Azido-2,3,5-trideoxy-3-fluoro-D-erythro-α-L-gluco-non-2-ulopyranosylonic fluoride], the inhibition (as a rule, the relative decrease from the control value, in per cent) at 100 µM was 75.2 ± 0.2% on A. ureafaciens sialidase [4]; under 1% on SpNanA [5] (setting [17]); 37.5 ± 1.2% on hNEU2 [6]; 29.8 ± 1.2% in [7] (setting [18]); under 1% on PmST1 [8]; under 1% at SpNanC [9]. Further, the figures for the inhibition at 100 µM on SpNanB, on BiNanH2 [10] (setting [19]) and at V. cholerae sialidase [11] (setting [20]) were 35.1 ± 0.8%, 40.8 ± 3.4% and 25 ± 1%, respectively. In addition, the IC50 (against SpNanA [5]; in [7]; on PmST1 [8]; against SpNanB) was over 1000 µM each time. The inhibition at 1000 µM at SpNanA [5] (setting [17]) was 29.6 ± 0.9%; on hNEU2 [6], 80.7 ± 1.2%; in test [7] (setting [18]), 30 ± 0.8%; at PmST1 [8], 7.8 ± 0.3%; at SpNanC [9], 6.5 ± 0.8%; at SpNanB it was 38 ± 0.9%. Also, the inhibition at 1000 µM on BiNanH2 [10] (setting [19]) worked out at 85.6 ± 0.5%; at V. cholerae sialidase [11] (setting [20]), 76.6 ± 4.6%.
Regarding `CC(=O)N[C@@H]1[C@@H](O)[C@H](F)[C@](F)(C(=O)O)O[C@H]1[C@H](O)[C@H](O)CO` [Compound 1, 5-Acetamido-2,3,5-trideoxy-3-fluoro-D-erythro-α-L-gluco-non-2-ulopyranosylonic fluoride], the inhibition at 100 µM was 99.2 ± 0.3% at A. ureafaciens sialidase [4]; 99.7 ± 0.3% on SpNanA [5] (setting [17]); 75.4 ± 0.6% on hNEU2 [6]; 80.6 ± 0.7% in [7] (setting [18]); under 1% on PmST1 [8]; under 1% at SpNanC [9]. The inhibition at 100 µM is 11.8 ± 1% at SpNanB, 95.4 ± 0.9% at BiNanH2 [10] (setting [19]) and 97.7 ± 0.3% on V. cholerae sialidase [11] (setting [20]). Further, the IC50 against PmST1 [8] is over 1000 µM; at SpNanC [9] (read-out: IC50, SpNanC), over 1000 µM; against SpNanB it was over 1000 µM; on V. cholerae sialidase [11], 2 ± 0.1 µM. In addition, the inhibition at 1000 µM was 4.3 ± 0.1% on PmST1 [8], 25.1 ± 6.1% at SpNanC [9] and 30.2 ± 2.2% on SpNanB.
For `CC(=O)N[C@@H]1[C@@H](O)[C@@H](F)[C@](F)(C(=O)O)O[C@H]1[C@H](O)[C@H](O)CO` [Compound 5, 5-Acetamido-2,3,5-trideoxy-3-fluoro-D-erythro-α-L-manno-non-2-ulopyranosylonic fluoride], the inhibition at 100 µM was 99.9 ± 0.2% on A. ureafaciens sialidase [4]; 99.9 ± 0.1% on SpNanA [5] (setting [17]); 69.7 ± 0.4% at hNEU2 [6]; 99.9 ± 0.1% in [7] (setting [18]); under 1% at PmST1 [8]; under 1% on SpNanC [9]. For the same molecule, the inhibition at 100 µM at SpNanB is 12 ± 0.2%; on BiNanH2 [10] (setting [19]) it was 98.9 ± 0.5%; on V. cholerae sialidase [11] (setting [20]) it was 96.8 ± 1.4%. The IC50 at SpNanA [5] is 0.13 µM; in test [7], 0.18 µM; at PmST1 [8], over 1000 µM; at SpNanB, over 1000 µM; on V. cholerae sialidase [11] it was 0.33 µM. Moreover, the results for the inhibition at 1000 µM on PmST1 [8], at SpNanC [9] and at SpNanB were 3 ± 0.6%, 55.2 ± 0.4% and 19 ± 0.2%, respectively.
Consider `CC(=O)N[C@@H]1[C@@H](O)[C@@H](F)[C@](F)(C(=O)O)O[C@H]1[C@H](O)[C@H](O)CN=[N+]=[N-]` [Compound 6, 5-Acetamido-9-azido-2,3,5,9-tetradeoxy-3-fluoro-D-erythro-α-L-manno-non-2-ulopyranosylonic fluoride], for which the inhibition at 100 µM on A. ureafaciens sialidase [4] was 99.9 ± 0.1%; at SpNanA [5] (setting [17]), 99.9 ± 0.1%; at hNEU2 [6] it was 1.5 ± 0.3%; in test [7] (setting [18]), 99.9 ± 0.1%; at PmST1 [8], under 1%; at SpNanC [9], under 1%. Besides, the inhibition at 100 µM worked out at 16.7 ± 1.6% on SpNanB, 98.8 ± 2.2% at BiNanH2 [10] (setting [19]) and 99.9 ± 0.6% on V. cholerae sialidase [11] (setting [20]). Further, the IC50 against SpNanA [5] is 0.033 µM; in test [7], 0.024 µM; against PmST1 [8] it was over 1000 µM; against SpNanB it was over 1000 µM; against V. cholerae sialidase [11], 0.18 µM. Further, the inhibition at 1000 µM on hNEU2 [6] is 53.4 ± 1.3%; at PmST1 [8] it was 6 ± 0.4%; on SpNanC [9], 83.7 ± 3.5%; on SpNanB, 43.8 ± 1.4%. Moreover, the “time for de-activation of SpNanA” value at SpNanA [12] was under 10 min. Besides, on SpNanA [12] (Figures 2C, S2C), the “sensitivity of SpNanA to the covalent inhibitor in the time course study” value was “sensitive”. Further, the “time for de-activation of BiNanH2” value on BiNanH2 [13] was under 10 min. Besides, the “sensitivity of BiNanH2 to the covalent inhibitor in the time course study” value on BiNanH2 [13] (Figures 2D, S2D) is on record as “sensitive”. Further, the “time for de-activation of CpNanI” value in test [14] is recorded as under 10 min. The “sensitivity of CpNanI to the covalent inhibitor in the time course study” value in [14] is “sensitive”. Moreover, at hNEU2 [15], the “sensitivity of hNEU2 to the covalent inhibitor in the time course study” value was “except for hNEU2”. In addition, the “time for de-activation of V. cholerae sialidase” value on V. cholerae sialidase [16] is under 10 min. The “IC50 for BiNanH2 better than that for hNEU2” value on BiNanH2 [10] (selectivity BiNanH2 versus hNEU2) was “at least 500 fold”. The “IC50 for V. cholerae sialidase better than that for hNEU2” value at V. cholerae sialidase [11] (selectivity V. cholerae sialidase versus hNEU2) is recorded as “at least 500 fold”.
Consider `CC(=O)N[C@@H]1[C@@H](O)[C@H](F)[C@](F)(C(=O)O)O[C@H]1[C@H](O)[C@H](O)CN=[N+]=[N-]` [Compound 2, 5-Acetamido-9-azido-2,3,5,9-tetradeoxy-3-fluoro-D-erythro-α-L-gluco-non-2-ulopyranosylonic fluoride], for which the inhibition at 100 µM on A. ureafaciens sialidase [4] is 99.9 ± 0.2%; at SpNanA [5] (setting [17]) it was 85.8 ± 0.7%; on hNEU2 [6] it was 82.3 ± 2.8%; in [7] (setting [18]) it was 99.9 ± 0.1%; at PmST1 [8], under 1%; at SpNanC [9] it was under 1%. Moreover, the results for the inhibition at 100 µM at SpNanB, on BiNanH2 [10] (setting [19]) and at V. cholerae sialidase [11] (setting [20]) were 26.8 ± 0.2%, 98.9% and 99.2 ± 0.5%, respectively. For the same molecule, the IC50 at SpNanA [5] is 0.21 µM; in test [7], 0.73 µM; against PmST1 [8] it was over 1000 µM; on V. cholerae sialidase [11], 0.73 µM. Moreover, the inhibition at 1000 µM on PmST1 [8] came out at 9.3 ± 2.3%; on SpNanC [9], 53.9 ± 0.1%; on SpNanB, 51.9 ± 2.2%. In test [14], the “sensitivity of CpNanI to the covalent inhibitor in the time course study” value is “also sensitive”.
Consider `O=C(CO)N[C@@H]1[C@@H](O)[C@H](F)[C@](F)(C(=O)O)O[C@H]1[C@H](O)[C@H](O)CO` [Compound 4, 5-glycolamido-2,3,5-trideoxy-3-fluoro-D-erythro-α-L-gluco-non-2-ulopyranosylonic fluoride], for which the inhibition at 100 µM at A. ureafaciens sialidase [4] was 96.1 ± 0.6%; on SpNanA [5] (setting [17]), 78.4 ± 0.5%; on hNEU2 [6] it was 80.4 ± 1.3%; in test [7] (setting [18]), 71.6 ± 1.2%; at PmST1 [8], under 1%; on SpNanC [9], under 1%. Also, the inhibition at 100 µM worked out at 25.3 ± 1.7% at SpNanB, 87.3 ± 0.8% on BiNanH2 [10] (setting [19]) and 97.8 ± 0.1% at V. cholerae sialidase [11] (setting [20]). In addition, the IC50 against PmST1 [8] is over 1000 µM; against SpNanB, over 1000 µM; on V. cholerae sialidase [11] it was 1.6 ± 0.1 µM. Further, the inhibition at 1000 µM came to 22.4 ± 0.1% on PmST1 [8], 5.5 ± 0.2% on SpNanC [9] and 26 ± 4.9% at SpNanB.

The values are drawn from paper PMC6660241 (The Journal of organic chemistry, 2019).
